# Like-named read-outs stand apart in the source and are kept apart here.
# Tests used:
# [1] = target: T1, GluR1 (Rattus norvegicus, UniProt P19490); assay: Voltage-clamp recording in Xenopus oocytes injected with GluR1 in vitro RNA; format: cell-based; conditions: for inhibition of kainate-evoked depolarizations (in words) / agonist properties (in words): each at 1 mM
# T1 construct: expressed in transfected cells; host or cells: Xenopus oocytes injected with GluR1 in vitro sense RNA
# Source text: Either a λZAP cDNA preparation, or a plasmid containing the cDNA to be tested, are cut downstream from the cDNA insert with a restriction enzyme. The post-restriction digest is digested with Proteinase K and then extracted with two phenol: chloroform (1:1) extractions. The resulting DNA fragments are then ethanol precipitated. The precipitated fragments are mixed with either T3 RNA polymerase (to make sense strand), or T7 RNA polymerase (to make anti-sense strand), plus rATP, rCTP, rGTP, rUTP, and RNase inhibitor. Simultaneously, the RNA transcripts are capped with a sodium diguanosine triphosphate [G(5')ppp(5')G] cap. The water used for the above procedures is treated with diethylpyrocarbonate to inactivate RNases.
# The in vitro synthesized mRNA transcripts are injected into Xenopus oocytes. 50 nl of an RNA solution, 0.2-0.6 mg/ml, is injected into the stage V oocytes. The injected oocytes are incubated at 16° C. in Barth's medium for 2-7 days before they are analyzed for the presence of functional receptors.
# Voltage recordings are made by penetrating the oocyte with a micro-electrode filled with 3M KCl and connected to the bridge circuit of an appropriate voltage clamp unit, e.g., the Dagan 8500 voltage clamp unit. Voltage recordings are preferably obtained with two electrodes, a voltage electrode filled with 3M KCl and a current electrode filled with 0.25M CsCl, 0.25M CsF and 50 mM EGTA (ethylene glycol tetraacetic acid).
# Oocytes employed herein are obtained from ovarian tissue from anesthetized adult female Xenopus. The ovarian tissue is treated with collagenase, 2 mg/ml, for two hours and then the ovarian epithelium and follicular cells are dissected away.
# The plasmid pGluR1 was subsequently rescued from bacteriophage λZAPII-GluR1.
# 3 days prior to the recording. The oocytes were voltageclamped at -70 mV,
# applied by rapid superfusion, with 5 minute intervals between drugs. Peak
# currents were recorded; each number represents the average of 3 recording
# from 3 different oocytes, ± SEM.
# (§1) The data in FIG. 3B represent the responses of oocytes to the indicated agonists measured 3 days after injection with GluR1 (2 ng) or GluR3 (2 ng) RNA or adult rat brain hippocampus poly(A)^+ RNA (~50 ng). All values are normalized to the response obtained with […] and are presented as the mean ± S.E.M. with n≥3 for all measurements.
# [2] = target: T2, homomeric GluR6 receptor (Rattus norvegicus, UniProt P42260, I567V/Q621R/Y571C); assay: Homomeric GluR6 ion channel in Xenopus oocytes injected with in vitro transcribed RNA; format: cell-based; conditions: for responsiveness of homomeric ion channels: summary statement; for current at -70 mV: 10 μM kainate
# T2 construct: A 4559 base pair cDNA encoding a protein of 884 amino acid residues was engineered from RC11 and RC27; expressed in transfected cells; host or cells: Xenopus oocytes injected with in vitro transcribed GluR6 RNA
# T2 sequence (P42260 with tags, fused parts or gaps I567V/Y571C/Q621R): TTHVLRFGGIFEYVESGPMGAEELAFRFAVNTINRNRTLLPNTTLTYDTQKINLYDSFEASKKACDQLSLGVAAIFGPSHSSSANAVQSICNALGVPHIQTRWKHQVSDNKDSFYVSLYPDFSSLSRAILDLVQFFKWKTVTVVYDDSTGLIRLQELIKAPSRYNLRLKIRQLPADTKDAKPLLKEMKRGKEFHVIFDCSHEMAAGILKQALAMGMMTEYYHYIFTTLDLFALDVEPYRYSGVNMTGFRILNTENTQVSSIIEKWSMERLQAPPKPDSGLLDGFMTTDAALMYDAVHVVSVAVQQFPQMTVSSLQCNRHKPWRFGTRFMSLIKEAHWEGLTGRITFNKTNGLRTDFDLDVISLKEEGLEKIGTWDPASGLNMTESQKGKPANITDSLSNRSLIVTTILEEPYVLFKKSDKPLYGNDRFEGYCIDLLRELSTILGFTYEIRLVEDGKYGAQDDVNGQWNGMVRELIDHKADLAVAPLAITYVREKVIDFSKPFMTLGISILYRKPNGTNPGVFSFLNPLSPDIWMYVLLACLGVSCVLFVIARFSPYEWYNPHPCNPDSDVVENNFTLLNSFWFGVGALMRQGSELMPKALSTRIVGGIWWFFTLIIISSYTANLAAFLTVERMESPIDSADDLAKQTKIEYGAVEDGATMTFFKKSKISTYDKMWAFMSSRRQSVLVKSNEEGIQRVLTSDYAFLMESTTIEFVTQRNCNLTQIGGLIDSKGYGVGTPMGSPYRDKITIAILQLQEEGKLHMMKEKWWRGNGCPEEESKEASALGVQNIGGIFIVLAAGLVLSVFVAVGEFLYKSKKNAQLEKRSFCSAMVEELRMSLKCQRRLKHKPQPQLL
# [3] = target: GluR5-1 (Rattus norvegicus, UniProt P22756); format: cell-based
# GluR5-1, sequence (P22756 with tags, fused parts or gaps K282L/C354W/A355R/A477G/DEL870-898): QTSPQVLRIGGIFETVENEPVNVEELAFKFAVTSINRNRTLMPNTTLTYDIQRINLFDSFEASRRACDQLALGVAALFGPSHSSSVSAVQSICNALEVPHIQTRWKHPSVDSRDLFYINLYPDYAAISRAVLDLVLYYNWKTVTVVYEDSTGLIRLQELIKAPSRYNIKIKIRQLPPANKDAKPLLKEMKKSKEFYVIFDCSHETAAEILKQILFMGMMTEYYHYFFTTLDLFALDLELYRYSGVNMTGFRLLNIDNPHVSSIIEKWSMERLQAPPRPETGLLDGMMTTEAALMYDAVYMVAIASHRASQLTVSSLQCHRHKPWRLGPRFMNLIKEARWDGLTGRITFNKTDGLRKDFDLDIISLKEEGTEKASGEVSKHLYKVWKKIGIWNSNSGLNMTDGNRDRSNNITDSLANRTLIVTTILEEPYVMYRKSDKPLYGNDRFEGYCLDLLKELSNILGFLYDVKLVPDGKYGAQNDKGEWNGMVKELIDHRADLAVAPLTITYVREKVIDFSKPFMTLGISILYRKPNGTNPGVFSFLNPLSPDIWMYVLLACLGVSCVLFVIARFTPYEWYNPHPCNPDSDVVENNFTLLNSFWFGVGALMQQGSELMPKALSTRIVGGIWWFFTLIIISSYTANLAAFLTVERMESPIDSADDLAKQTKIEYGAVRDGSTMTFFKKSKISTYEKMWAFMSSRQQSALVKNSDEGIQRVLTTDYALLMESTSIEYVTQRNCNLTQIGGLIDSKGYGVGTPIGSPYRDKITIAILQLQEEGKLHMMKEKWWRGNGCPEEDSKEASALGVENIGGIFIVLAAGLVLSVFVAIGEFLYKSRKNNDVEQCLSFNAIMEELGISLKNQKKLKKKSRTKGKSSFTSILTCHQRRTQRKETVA
# Source text: (§2) In vitro synthesized GluR5-1 and GluR5-2 cRNAs were individually expressed in Xenopus oocytes.
# [4] = target: GluR5-2 (Rattus norvegicus, UniProt P22756); format: cell-based
# GluR5-2, sequence (P22756 31-949): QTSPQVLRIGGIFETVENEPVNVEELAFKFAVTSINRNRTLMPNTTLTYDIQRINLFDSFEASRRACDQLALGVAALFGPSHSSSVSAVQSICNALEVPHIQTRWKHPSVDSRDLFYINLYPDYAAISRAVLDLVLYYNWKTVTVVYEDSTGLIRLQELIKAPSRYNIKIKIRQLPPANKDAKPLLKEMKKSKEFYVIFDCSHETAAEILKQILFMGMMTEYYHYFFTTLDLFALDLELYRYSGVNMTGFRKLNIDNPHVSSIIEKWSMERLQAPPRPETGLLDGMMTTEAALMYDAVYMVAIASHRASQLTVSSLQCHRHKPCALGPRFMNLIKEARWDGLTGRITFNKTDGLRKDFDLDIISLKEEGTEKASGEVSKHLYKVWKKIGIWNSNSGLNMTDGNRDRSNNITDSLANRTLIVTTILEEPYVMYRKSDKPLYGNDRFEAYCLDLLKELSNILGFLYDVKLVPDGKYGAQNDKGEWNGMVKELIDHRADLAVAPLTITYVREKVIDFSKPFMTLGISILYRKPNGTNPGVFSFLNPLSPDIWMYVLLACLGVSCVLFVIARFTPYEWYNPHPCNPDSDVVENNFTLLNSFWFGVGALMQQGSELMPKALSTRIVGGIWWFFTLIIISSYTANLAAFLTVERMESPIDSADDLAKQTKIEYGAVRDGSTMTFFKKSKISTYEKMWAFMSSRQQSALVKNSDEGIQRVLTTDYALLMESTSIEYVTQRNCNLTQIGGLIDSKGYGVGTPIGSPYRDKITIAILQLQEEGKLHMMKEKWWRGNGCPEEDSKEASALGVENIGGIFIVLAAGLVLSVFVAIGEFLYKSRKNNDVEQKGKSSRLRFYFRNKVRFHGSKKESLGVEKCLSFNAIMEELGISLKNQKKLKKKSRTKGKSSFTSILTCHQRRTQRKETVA
# Source text: as §2
# [5] = target: GluR3 (Rattus norvegicus, UniProt P19492); format: cell-based
# GluR3, sequence (P19492 23-888): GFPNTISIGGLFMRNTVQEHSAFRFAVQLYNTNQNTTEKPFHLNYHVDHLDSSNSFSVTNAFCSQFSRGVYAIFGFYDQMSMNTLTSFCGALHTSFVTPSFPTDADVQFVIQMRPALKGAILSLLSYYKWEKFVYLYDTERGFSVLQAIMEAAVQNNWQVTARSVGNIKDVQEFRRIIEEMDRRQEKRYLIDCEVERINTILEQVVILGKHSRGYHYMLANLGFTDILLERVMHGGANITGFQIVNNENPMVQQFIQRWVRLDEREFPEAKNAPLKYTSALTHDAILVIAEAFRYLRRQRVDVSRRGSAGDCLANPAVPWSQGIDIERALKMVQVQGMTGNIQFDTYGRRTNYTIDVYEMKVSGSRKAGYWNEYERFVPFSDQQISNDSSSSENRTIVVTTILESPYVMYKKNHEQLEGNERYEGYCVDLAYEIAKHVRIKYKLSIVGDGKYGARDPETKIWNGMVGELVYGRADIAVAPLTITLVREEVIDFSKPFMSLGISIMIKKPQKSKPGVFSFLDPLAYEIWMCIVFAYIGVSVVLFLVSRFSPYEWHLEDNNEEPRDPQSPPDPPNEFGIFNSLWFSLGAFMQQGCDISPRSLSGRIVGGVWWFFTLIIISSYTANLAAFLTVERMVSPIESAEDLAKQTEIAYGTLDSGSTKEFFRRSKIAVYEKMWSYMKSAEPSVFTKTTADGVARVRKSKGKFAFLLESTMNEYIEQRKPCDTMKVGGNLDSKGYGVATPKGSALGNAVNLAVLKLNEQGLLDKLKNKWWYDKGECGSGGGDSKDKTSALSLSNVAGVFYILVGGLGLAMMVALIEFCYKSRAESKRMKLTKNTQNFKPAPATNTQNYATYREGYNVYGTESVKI
# Method: Thus, oocytes were injected with in vitro synthesized RNA transcripts derived from individual cDNA clones.
# as §1
# [6] = system: glutamate receptor subtypes; format: cell-based, rat; conditions: 2-10 days after injection
# [7] = target: kainate receptors derived from forebrain mRNA; conditions: read-out: Ki for block of kainate responses; literature value (Verdoorn et al.); cited from earlier work
# [8] = system: kainate receptor; format: cell-based, rat
# Method: A directional cDNA library (λZAPII RTB1; complexity: 8×10^5 elements), consisting of 18 independent sublibraries of 44,000 clones each, was constructed from this poly(A)^+ RNA using the bacteriophage expression vector λZAPII. A pool of in vitro transcripts, comprised of transcripts made separately from all 18 amplified sublibraries, was injected into oocytes. […] Subsequently, pools of 44,000 clones (=the single sublibraries), 4,000, 400 and 40 clones were tested.
# [9] = oocytes held at -100 mV, before Con A, AMPA 100 μM
# [10] = QUIS 10 μM, AMPA 50 μM, GLU 100 μM, NMDA 30 μM plus 10 μM glycine, APB 50 μM, -70 mV, 2 ng RNA, 3 days
# T1 sequence (P19490 19-907 S67T/A248R/S789T): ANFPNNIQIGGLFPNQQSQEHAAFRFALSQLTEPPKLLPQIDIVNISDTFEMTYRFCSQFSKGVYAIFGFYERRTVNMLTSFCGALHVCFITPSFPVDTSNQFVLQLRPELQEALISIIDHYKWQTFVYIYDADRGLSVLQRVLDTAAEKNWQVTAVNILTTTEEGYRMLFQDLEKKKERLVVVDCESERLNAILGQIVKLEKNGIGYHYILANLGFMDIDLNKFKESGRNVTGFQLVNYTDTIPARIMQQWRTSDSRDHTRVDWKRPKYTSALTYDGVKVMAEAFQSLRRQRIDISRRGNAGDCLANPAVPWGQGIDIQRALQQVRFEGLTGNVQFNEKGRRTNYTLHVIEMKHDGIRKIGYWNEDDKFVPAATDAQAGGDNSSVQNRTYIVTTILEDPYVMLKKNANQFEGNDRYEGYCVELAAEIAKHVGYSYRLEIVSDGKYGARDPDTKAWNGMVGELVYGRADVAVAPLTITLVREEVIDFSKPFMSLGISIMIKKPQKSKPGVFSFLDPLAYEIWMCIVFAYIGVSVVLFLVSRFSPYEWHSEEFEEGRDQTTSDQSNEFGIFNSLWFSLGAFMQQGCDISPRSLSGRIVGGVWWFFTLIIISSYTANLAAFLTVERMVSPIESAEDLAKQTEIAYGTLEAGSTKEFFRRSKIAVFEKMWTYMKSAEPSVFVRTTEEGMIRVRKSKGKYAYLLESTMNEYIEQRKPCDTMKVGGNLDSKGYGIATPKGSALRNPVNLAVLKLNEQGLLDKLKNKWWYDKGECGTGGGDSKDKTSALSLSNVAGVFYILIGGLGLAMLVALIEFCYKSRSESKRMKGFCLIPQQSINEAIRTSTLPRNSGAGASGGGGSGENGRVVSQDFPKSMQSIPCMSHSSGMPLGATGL
smiles,measurement,setting,value
"O=C(O)[C@H]1CCCN[C@H]1C(=O)O (relative stereo) [PDA, 2,3cis-piperidine dicarboxylic acid]",inhibition of kainate-evoked depolarizations (in words),[1],blocked the GluR1 response
same,Compound Alone (%): % of the response evoked by 30 μM kainate immediately before drug application,"[1]; xenopus oocytes, 1000 µM",2.5 ± 0.7%
same,Compound Plus Kainate (%): % of the response seen with 30 μM kainate alone,"[1]; xenopus oocytes, 1000 µM",31.3 ± 2.0%
"Cc1onc(O)c1CC(N)C(=O)O (stereo not drawn) [AMPA, α-amino-3-hydroxy-5-methyl-isoxazole-4-propionic acid]",effect on kainate-evoked current,[2],nor did it antagonize a kainate-evoked current
same,response of Con A treated oocytes,[2],did not respond
same,effect of coapplication on kainate-evoked (1 μM) responses,"[2]; AMPA 100 μM, Con A treated oocytes",had no effect
same,inward current evoked,[2]; [9],did not evoke any detectable current
same,responsiveness of homomeric ion channels,[2],but not to AMPA
"NC(CCP(=O)(O)O)C(=O)O (centres unmarked) [APB, 2-amino-4-phosphonobutyric acid]",response to agonist,[1]; [10],No detectable responses
same,membrane depolarizations elicited,"[3]; AMPA 50 μM, quisqualate 10 μM, APB 100 μM, NMDA 100 μM with 10 μM glycine",did not elicit membrane depolarizations
same,membrane depolarizations elicited,"[4]; KA 100 MM, AMPA 50 μM, quisqualate 10 μM, APB 100 μM, NMDA 100 μM with 10 μM glycine",did not elicit membrane depolarizations
same,response to agonist,[5]; [10],No detectable responses
same,response to selective agonists,[6],gave no response
"NC(CCCP(=O)(O)O)C(=O)O (centres unmarked) [APV, 2amino-5-phospho-novaleric acid]",agonist properties (in words),[1],did not show any agonist properties
same,inhibition of kainate-evoked depolarizations (in words),[1],slightly inhibited the KA responses
same,Compound Plus Kainate (%): % of the response seen with 30 μM kainate alone,"[1]; test compounds 1 mM plus 30 μM kainate, -70 mV, peak currents, average of 3 oocytes ± SEM",73.7 ± 3.2%
same,Compound Alone (%): % of the response evoked by 30 μM kainate immediately before drug application,"[1]; test compounds 1 mM, kainate 30 μM, -70 mV, peak currents, average of 3 oocytes ± SEM",3.1 ± 1.4%
"N#Cc1cc2[nH]c(=O)c(=O)[nH]c2cc1[N+](=O)[O-] [CNQX, 6-nitro-7-cyano-quinoxaline-2,3-dione]",block of agonist-evoked responses,[2],blocked both quisqualate and kainate-evoked responses
same,Ki,[7],295 nM
O=C(O)C1CN(CCCP(=O)(O)O)CCN1 (centres unmarked) [CPP],agonist properties (in words),[1],did not show any agonist properties
same,inhibition of kainate-evoked depolarizations (in words),[1],slightly inhibited the KA responses
same,Compound Alone (%): % of the response evoked by 30 μM kainate immediately before drug application,"[1]; xenopus oocytes, 1000 µM",9.1 ± 0.7%
same,Compound Plus Kainate (%): % of the response seen with 30 μM kainate alone,"[1]; xenopus oocytes, 1000 µM",78.8 ± 0.9%
"CCOC(=O)CC[C@H](N)C(=O)OCC [GDEE, glutamate diethylester]",agonist properties (in words),[1],displayed weak agonist properties
same,inhibition of kainate-evoked depolarizations (in words),[1],did not block the response significantly
same,Compound Alone (%): % of the response evoked by 30 μM kainate immediately before drug application,"[1]; xenopus oocytes, 1000 µM",24.8 ± 5.7%
same,Compound Plus Kainate (%): % of the response seen with 30 μM kainate alone,"[1]; xenopus oocytes, 1000 µM",97.8 ± 6.6%
O=C(O)c1cc(=O)c2ccccc2[nH]1 [Kynurenic acid],inhibition of kainate-evoked depolarizations (in words),[1],most potent inhibitor
same,Compound Alone (%): % of the response evoked by 30 μM kainate immediately before drug application,"[1]; xenopus oocytes, 1000 µM",3.4 ± 0.2%
same,Compound Plus Kainate (%): % of the response seen with 30 μM kainate alone,"[1]; xenopus oocytes, 1000 µM",9.6 ± 1.3%
"CN[C@H](CC(=O)O)C(=O)O [NMDA, N-methyl-D-aspartic acid]",response to agonist,[1],No detectable responses
same,responses evoked by other glutamate receptor agonists,[1],evoked no responses
same,agonist properties (in words),[1],did not show any agonist properties
same,inhibition of kainate-evoked depolarizations (in words),[1],slightly inhibited the KA responses
same,membrane depolarizations elicited,[3],did not elicit membrane depolarizations
same,membrane depolarizations elicited,[4],did not elicit membrane depolarizations
same,response to agonist,[5],No detectable responses
same,response of Con A treated oocytes,[2],did not respond
same,responses detected,[8],No responses
same,response to selective agonists,[6],elicited smooth responses with fast onsets
"C/C(=C/C=C/[C@@H](C)C(=O)O)[C@H]1CN[C@H](C(=O)O)[C@H]1CC(=O)O [domoate, domoic acid]",response compared with kainate,[8]; 10 μM domoate vs 100 μM kainate,response similar to the one elicited by 100 μM kainate
NCC(=O)O [glycine],potentiation of the KA response,[1],did not potentiate the KA response
same,responses evoked by unrelated neurotransmitter receptor agonists,[1],failed to evoke responses
"C=C(C)[C@H]1CN[C@H](C(=O)O)[C@H]1CC(=O)O [kainate, kainic acid]",desensitization of responses,"[1]; prolonged (up to 10 minutes) superfusion, 100 μM agonist",did not desensitize
same,current at -70 mV,"[2]; Con A treated, modified Ringer solution (sodium methanesulfonate)",330 nA
same,current at -70 mV,"[2]; Ringer solution, after Con A treatment",2.3 μa
same,current at -70 mV,"[2]; Ringer solution, before Con A treatment",30 nA
same,response of Con A treated oocytes,"[2]; 100 μM aspartate, 100 μM NMDA with 3 μM glycine, 10-1000 μM AMPA",responded
same,time to full recovery from desensitization,[2]; 100 μM kainate for 30 seconds,approximately 15 minutes
same,inward current evoked,[2]; [9],evoked inward currents that desensitized
same,responsiveness of homomeric ion channels,[2],responsive to KA
"CS(=O)(=O)O [methanesulfonate, sodium methanesulfonate]",reduction of kainate-evoked current,[2]; 95% of Cl- substituted by methanesulfonate,8 fold
CN1CCCC1c1cccnc1 (centres unmarked) [nicotine],responses evoked by unrelated neurotransmitter receptor agonists,[1],failed to evoke responses
"N[C@@H](Cn1oc(=O)[nH]c1=O)C(=O)O [quisqualate, quisqualic acid]",membrane depolarizations elicited,[3],did not elicit membrane depolarizations
same,membrane depolarizations elicited,[4],did not elicit membrane depolarizations
same,effect on kainate-evoked current,[2],attenuated a subsequent kainate evoked current
same,inward current evoked,[2],activated only small inward currents
NCCc1c[nH]c2ccc(O)cc12 [serotonin],responses evoked by unrelated neurotransmitter receptor agonists,[1]; concentrations as high as 1 mM,failed to evoke responses
"N[C@H](CCC(=O)NCC(=O)O)C(=O)O [γ-DGG, D-glutamylglycine]",inhibition of kainate-evoked depolarizations (in words),[1],inhibited kainate responses
same,Compound Alone (%): % of the response evoked by 30 μM kainate immediately before drug application,"[1]; xenopus oocytes, 1000 µM",-0.1 ± 0.5%
same,Compound Plus Kainate (%): % of the response seen with 30 μM kainate alone,"[1]; xenopus oocytes, 1000 µM",30.8 ± 1.1%
NCCCC(=O)O [γ-aminobutyric acid],responses evoked by unrelated neurotransmitter receptor agonists,[1]; concentrations as high as 1 mM,failed to evoke responses
